Laboratory results as given in patent US20100247600A1, “THERAPEUTIC DRUG ELUTING IMPLANT COVER AND METHOD OF MAKING THE SAME” (Warsaw Orthopedic, Inc., priority 2009, published 2010).

Assay: Effect of autoclave sterilization on final drug concentration in silicone sleeve
Format: physicochemical
Details: rifampin in silicone sleeve, starting concentration about 0.0738 wt %, autoclave about 30 minutes
Method: FIG. 18 illustrates the effect of sterilization on the final drug concentration, showing the degradation rate versus autoclave time, for example, with a starting concentration of about 0.0738 wt % rifampin in the silicone and running the autoclave about 30 minutes will result in a final concentration of about 0.054 wt % rifampin in the silicone sleeve.
The term “weight percent” or “wt %” means the ratio of the drug weight to the weight of the biocompatible matrix, e.g., the silicone after sterilization, for example, an initial concentration of rifampin of about 0.0738 wt % with about a 30 minute autoclave time will result in a final wt % of about 0.054 in the sterilized product. Other than where expressly indicated, all numbers expressing amounts of materials, concentrations, quantified properties of materials, and so forth, stated in the specification and claims are to be understood as being modified in all instances by the term “about” or “approximately”.

## CO[C@H]1/C=C/O[C@@]2(C)Oc3c(C)c(O)c4c(O)c(c(/C=N/N5CCN(C)CC5)c(O)c4c3C2=O)NC(=O)/C(C)=C\C=C\[C@H](C)[C@H](O)[C@@H](C)[C@@H](O)[C@@H](C)[C@H](OC(C)=O)[C@@H]1C [rifampin]
  final concentration after autoclave sterilization: about 0.054 wt %
